Several values for one entry are separate records, joined by “and”; a condition that tells them apart may be missing. Equal values may be shown once. Toxic doses and inconclusive results are not listed. Cut-off read from the data, not from the text of the source: active = T/C of 150% or more; inactive = T/C below 125%.
System: L1210 leukemia ip in BDF1 mice, survival T/C
Assay: NCI In Vivo Anticancer Drug Screen. Data for tumor model L1210 Leukemia (intraperitoneal) in B6D2F1 (BDF1) mice
Conditions: endpoint: mean survival time, higher = longer survival
How it was run: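 Ratio derived from survival: compound-dosed mice over vehicle-dosed mice, all bearing a transplantable tumor.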

[1] = dose: 100.0 mg/kg/injection, schedule: Q01DX009 (ip), vehicle: saline with Tween-80
[2] = dose: 200.0 mg/kg/injection, schedule: Q01DX009 (ip), vehicle: saline with Tween-80
[3] = dose: 25.0 mg/kg/injection, schedule: Q01DX009 (ip), vehicle: saline
[4] = dose: 50.0 mg/kg/injection, schedule: Q01DX009 (ip), vehicle: saline
[5] = dose: 100.0 mg/kg/injection, schedule: Q01DX009 (ip), vehicle: saline
[6] = dose: 100.0 mg/kg/injection, schedule: Q01DX001 (ip), vehicle: carboxymethylcellulose (CMC)
[7] = dose: 200.0 mg/kg/injection, schedule: Q01DX001 (ip), vehicle: carboxymethylcellulose (CMC)
[8] = dose: 400.0 mg/kg/injection, schedule: Q01DX001 (ip), vehicle: carboxymethylcellulose (CMC)
[9] = dose: 100.0 mg/kg/injection, schedule: Q01DX001 (ip), vehicle: saline
[10] = dose: 200.0 mg/kg/injection, schedule: Q01DX001 (ip), vehicle: saline
[11] = dose: 400.0 mg/kg/injection, schedule: Q01DX001 (ip), vehicle: saline
[12] = dose: 100.0 mg/kg/injection, schedule: Q01DX009 (ip), vehicle: Klucel (hydroxypropylcellulose) (HPC)
[13] = dose: 200.0 mg/kg/injection, schedule: Q01DX009 (ip), vehicle: Klucel (hydroxypropylcellulose) (HPC)
[14] = dose: 400.0 mg/kg/injection, schedule: Q01DX009 (ip), vehicle: Klucel (hydroxypropylcellulose) (HPC)
[15] = dose: 100.0 mg/kg/injection, schedule: Q04DX003 (ip), vehicle: saline with Tween-80
[16] = dose: 200.0 mg/kg/injection, schedule: Q04DX003 (ip), vehicle: saline with Tween-80
[17] = dose: 400.0 mg/kg/injection, schedule: Q04DX003 (ip), vehicle: saline with Tween-80

Measured: T/C

CCOc1ccc(NC(=O)CC(C)=O)cc1
inactive: dose: 25.0 mg/kg/injection, schedule: Q04DX003 (ip), vehicle: other 95 % of control | dose: 50.0 mg/kg/injection, schedule: Q04DX003 (ip), vehicle: other 100 % of control | dose: 100.0 mg/kg/injection, schedule: Q04DX003 (ip), vehicle: other 96 % of control

Cc1ccc(S(=O)(=O)Cl)c(Cl)c1
inactive: dose: 50.0 mg/kg/injection, schedule: Q01DX009 (ip), vehicle: saline with Tween-80 92 % of control | [1] 94 % of control | [2] 91 % of control

CC(C)C(=O)NC(Cc1ccccc1)C(=O)N(Cc1ccccc1)N=O (centres undefined)
inactive: dose: 32.0 mg/kg/injection, schedule: Q04DX002 (ip), vehicle: Klucel (hydroxypropylcellulose) (HPC) 94 % of control | dose: 63.0 mg/kg/injection, schedule: Q04DX002 (ip), vehicle: Klucel (hydroxypropylcellulose) (HPC) 97 % of control | dose: 125.0 mg/kg/injection, schedule: Q04DX002 (ip), vehicle: Klucel (hydroxypropylcellulose) (HPC) 94 % of control

Nc1nc(=S)nc(N)[nH]1
inactive: [3] 101 % of control | [4] 103 % of control | [5] 97 % of control

CN(C)Cc1cc(C(C)(C)C)ccc1-c1ccc(C(C)(C)C)cc1CN(C)C
inactive: dose: 12.5 mg/kg/injection, schedule: Q01DX009 (ip), vehicle: gum acacia 91 % of control | dose: 25.0 mg/kg/injection, schedule: Q01DX009 (ip), vehicle: gum acacia 96 % of control | dose: 50.0 mg/kg/injection, schedule: Q01DX009 (ip), vehicle: gum acacia 86 % of control

CCCCCCCC(=O)N(CCCCC)CCCCC
inactive: [6] 99 % of control | dose: 100.0 mg/kg/injection, schedule: Q01DX009 (ip), vehicle: carboxymethylcellulose (CMC) 93 % of control and 101 % of control | dose: 100.0 mg/kg/injection, schedule: Q04DX002 (ip), vehicle: carboxymethylcellulose (CMC) 97 % of control | dose: 100.0 mg/kg/injection, schedule: Q04DX003 (ip), vehicle: carboxymethylcellulose (CMC) 101 % of control | [7] 96 % of control | dose: 200.0 mg/kg/injection, schedule: Q01DX009 (ip), vehicle: carboxymethylcellulose (CMC) 97 % of control and 90 % of control | dose: 200.0 mg/kg/injection, schedule: Q04DX002 (ip), vehicle: carboxymethylcellulose (CMC) 107 % of control | dose: 200.0 mg/kg/injection, schedule: Q04DX003 (ip), vehicle: carboxymethylcellulose (CMC) 98 % of control | [8] 91 % of control | dose: 400.0 mg/kg/injection, schedule: Q04DX002 (ip), vehicle: carboxymethylcellulose (CMC) 96 % of control | dose: 400.0 mg/kg/injection, schedule: Q04DX003 (ip), vehicle: carboxymethylcellulose (CMC) 102 % of control

Clc1ccc(C2OCCO2)c(Cl)c1
inactive: [9] 97 % of control | [10] 92 % of control | [11] 87 % of control

COc1cc(Cl)ccc1NC(=O)Oc1cccc2ccccc12
inactive: [12] 89 % of control | [13] 101 % of control | [14] 95 % of control

N#Cc1nc2c(n(O)c1=N)CCC/C2=C\c1ccccc1
inactive: dose: 50.0 mg/kg/injection, schedule: Q01DX009 (ip), vehicle: Klucel (hydroxypropylcellulose) (HPC) 103 % of control | [12] 103 % of control | [13] 93 % of control

CC(=O)CC(=O)C(F)(F)F.CC(=O)CC(=O)C(F)(F)F.CC(=O)CC(=O)C(F)(F)F.[Cr]
inactive: [6] 109 % of control | [7] 96 % of control | [8] 98 % of control

OC(c1cc2ccc(C(F)(F)F)cc2c2cc(C(F)(F)F)ccc12)C1CCCCN1 (centres undefined)
inactive: dose: 12.5 mg/kg/injection, schedule: Q01DX009 (ip), vehicle: saline 93 % of control | [3] 103 % of control | [4] 108 % of control

CCOC(=O)C1=C(O)C(=O)C(C(=O)OCC)C1 (centres undefined)
inactive: dose: 75.0 mg/kg/injection, schedule: Q01DX001 (ip), vehicle: saline 86 % of control | dose: 150.0 mg/kg/injection, schedule: Q01DX001 (ip), vehicle: saline 106 % of control | dose: 300.0 mg/kg/injection, schedule: Q01DX001 (ip), vehicle: saline 90 % of control

CC(C)(C)OC(=O)C(=O)C(OC(C)(C)C)C(=O)OC(C)(C)C (centres undefined)
inactive: [9] 98 % of control | [10] 102 % of control

O=C(CCCl)NCCCCCCNC(=O)CCCl
inactive: [9] 100 % of control | [10] 89 % of control | [11] 90 % of control

Cn1ccc(=O)nc1
inactive: [5] 94 % of control | dose: 200.0 mg/kg/injection, schedule: Q01DX009 (ip), vehicle: saline 103 % of control | dose: 400.0 mg/kg/injection, schedule: Q01DX009 (ip), vehicle: saline 100 % of control

CCOC(=O)C(=O)NCc1cnccn1
inactive: dose: 100.0 mg/kg/injection, schedule: Q01DX009 (ip), vehicle: water 103 % of control | dose: 100.0 mg/kg/injection, schedule: Q04DX003 (ip), vehicle: water 91 % of control | dose: 200.0 mg/kg/injection, schedule: Q01DX009 (ip), vehicle: water 101 % of control and 107 % of control | dose: 200.0 mg/kg/injection, schedule: Q04DX003 (ip), vehicle: water 94 % of control | dose: 400.0 mg/kg/injection, schedule: Q01DX009 (ip), vehicle: water 94 % of control and 110 % of control | dose: 400.0 mg/kg/injection, schedule: Q04DX003 (ip), vehicle: water 104 % of control

CC(=O)OC1COC(n2cnc3c(N4CCCCC4)ncnc32)C(OC(C)=O)C1OC(C)=O (centres undefined)
inactive: [9] 100 % of control | [10] 96 % of control | [11] 96 % of control

Cc1ccc(C(C)(O)c2cnc(C)n2Cc2ccccc2)cc1 (centres undefined)
inactive: dose: 100.0 mg/kg/injection, schedule: Q01DX001 (ip), vehicle: saline with Tween-80 97 % of control | [1] 95 % of control and 113 % of control | dose: 100.0 mg/kg/injection, schedule: Q04DX002 (ip), vehicle: saline with Tween-80 110 % of control and 92 % of control | [15] 101 % of control | dose: 200.0 mg/kg/injection, schedule: Q01DX001 (ip), vehicle: saline with Tween-80 97 % of control | [2] 98 % of control and 102 % of control | dose: 200.0 mg/kg/injection, schedule: Q04DX002 (ip), vehicle: saline with Tween-80 95 % of control and 97 % of control | [16] 103 % of control | dose: 400.0 mg/kg/injection, schedule: Q01DX001 (ip), vehicle: saline with Tween-80 91 % of control | dose: 400.0 mg/kg/injection, schedule: Q01DX009 (ip), vehicle: saline with Tween-80 91 % of control and 92 % of control | dose: 400.0 mg/kg/injection, schedule: Q04DX002 (ip), vehicle: saline with Tween-80 103 % of control and 88 % of control | [17] 98 % of control

O=C(O)c1ccccc1Cl.[Ni]
inactive: dose: 25.0 mg/kg/injection, schedule: Q04DX002 (ip), vehicle: Klucel (hydroxypropylcellulose) (HPC) 94 % of control | dose: 50.0 mg/kg/injection, schedule: Q04DX002 (ip), vehicle: Klucel (hydroxypropylcellulose) (HPC) 109 % of control

CCC(=O)CC(C)(C)C
inactive: [9] 92 % of control | [10] 97 % of control | [11] 100 % of control

NN(C(=O)c1ccccc1)C1CCCCC1
inactive: [15] 104 % of control | [16] 96 % of control | [17] 96 % of control

CSc1ccc(NC(=O)Oc2cc(C)c(Cl)cc2C(C)C)cc1
inactive: [12] 94 % of control | [13] 96 % of control | [14] 89 % of control
